Reference: PMC12102759 (Protein Science : A Publication of the Protein Society, 2025)

What follows are sequences tested on G3BP1 NFT2. Conditions: library DMS-CoV; bait G3BP1 NFT2; prey N; peptide RNAPRITFGGPSDSTG; listed as aa = residue placed at this position; column sums to 1.
Assay type: binding, human
With “RNAPRITFGGPSDSTG P11Q (RNAPRITFGGQSDSTG)” the “DMS PSSM value, P (position 11)” value was 0.
“RNAPRITFGGPSDSTG P11H (RNAPRITFGGHSDSTG)” was tested, and the “DMS PSSM value, P (position 11)” value was 0.
RNAPRITFGGPSDSTG I6V (RNAPRVTFGGPSDSTG) was tested, and the “DMS PSSM value, I (position 6)” value was 0.768.
In the case of RNAPRITFGGPSDSTG N2K (RKAPRITFGGPSDSTG), the “DMS PSSM value, N (position 2)” value is reported as 0.
For RNAPRITFGGPSDSTG T7A (RNAPRIAFGGPSDSTG), the “DMS PSSM value, T (position 7)” value was 0.
With “RNAPRITFGGPSDSTG T15E (RNAPRITFGGPSDSEG)” the “DMS PSSM value, T (position 15)” value was 0.
With RNAPRITFGGPSDSTG F8L (RNAPRITLGGPSDSTG) the “DMS PSSM value, F (position 8)” value was 0.
RNAPRITFGGPSDSTG R5D (RNAPDITFGGPSDSTG) was tested, and the “DMS PSSM value, R (position 5)” value was 0.0001605.
In the case of RNAPRITFGGPSDSTG I6Q (RNAPRQTFGGPSDSTG), the “DMS PSSM value, I (position 6)” value is reported as 0.
For “RNAPRITFGGPSDSTG D13M (RNAPRITFGGPSMSTG)”, the “DMS PSSM value, D (position 13)” value was 0.
“RNAPRITFGGPSDSTG D13W (RNAPRITFGGPSWSTG)” was tested, and the “DMS PSSM value, D (position 13)” value was 0.
For RNAPRITFGGPSDSTG G9L (RNAPRITFLGPSDSTG), the “DMS PSSM value, G (position 9)” value was 0.
With “RNAPRITFGGPSDSTG S14P (RNAPRITFGGPSDPTG)” the “DMS PSSM value, S (position 14)” value was 0.
“RNAPRITFGGPSDSTG G16M (RNAPRITFGGPSDSTM)” was tested, and the “DMS PSSM value, G (position 16)” value was 0.
RNAPRITFGGPSDSTG F8M (RNAPRITMGGPSDSTG) was tested, and the “DMS PSSM value, F (position 8)” value was 0.
With RNAPRITFGGPSDSTG R5P (RNAPPITFGGPSDSTG) the “DMS PSSM value, R (position 5)” value was 0.5972.
In the case of RNAPRITFGGPSDSTG N2V (RVAPRITFGGPSDSTG), the “DMS PSSM value, N (position 2)” value is reported as 0.
RNAPRITFGGPSDSTG R5L (RNAPLITFGGPSDSTG) was tested, and the “DMS PSSM value, R (position 5)” value was 0.01198.
“RNAPRITFGGPSDSTG T15Q (RNAPRITFGGPSDSQG)” was tested, and the “DMS PSSM value, T (position 15)” value was 0.
RNAPRITFGGPSDSTG I6L (RNAPRLTFGGPSDSTG) was tested, and the “DMS PSSM value, I (position 6)” value was 0.232.
In the case of RNAPRITFGGPSDSTG R5S (RNAPSITFGGPSDSTG), the “DMS PSSM value, R (position 5)” value is reported as 0.002286.
“RNAPRITFGGPSDSTG T15M (RNAPRITFGGPSDSMG)” was tested, and the “DMS PSSM value, T (position 15)” value was 0.
For RNAPRITFGGPSDSTG I6G (RNAPRGTFGGPSDSTG), the “DMS PSSM value, I (position 6)” value was 0.
“RNAPRITFGGPSDSTG G10P (RNAPRITFGPPSDSTG)” was tested, and the “DMS PSSM value, G (position 10)” value was 0.
RNAPRITFGGPSDSTG G9T (RNAPRITFTGPSDSTG) was tested, and the “DMS PSSM value, G (position 9)” value was 0.
In the case of RNAPRITFGGPSDSTG N2E (REAPRITFGGPSDSTG), the “DMS PSSM value, N (position 2)” value is reported as 0.4748.
With “RNAPRITFGGPSDSTG G10D (RNAPRITFGDPSDSTG)” the “DMS PSSM value, G (position 10)” value was 0.
With RNAPRITFGGPSDSTG N2T (RTAPRITFGGPSDSTG) the “DMS PSSM value, N (position 2)” value was 0.
In the case of “RNAPRITFGGPSDSTG S12L (RNAPRITFGGPLDSTG)”, the “DMS PSSM value, S (position 12)” value is reported as 0.
In the case of RNAPRITFGGPSDSTG G9A (RNAPRITFAGPSDSTG), the “DMS PSSM value, G (position 9)” value is reported as 0.
With RNAPRITFGGPSDSTG R5F (RNAPFITFGGPSDSTG) the “DMS PSSM value, R (position 5)” value was 0.
“RNAPRITFGGPSDSTG G10M (RNAPRITFGMPSDSTG)” was tested, and the “DMS PSSM value, G (position 10)” value was 0.
With RNAPRITFGGPSDSTG I6T (RNAPRTTFGGPSDSTG) the “DMS PSSM value, I (position 6)” value was 0.
With RNAPRITFGGPSDSTG R5H (RNAPHITFGGPSDSTG) the “DMS PSSM value, R (position 5)” value was 0.001007.
With RNAPRITFGGPSDSTG F8A (RNAPRITAGGPSDSTG) the “DMS PSSM value, F (position 8)” value was 0.
For “RNAPRITFGGPSDSTG S14Q (RNAPRITFGGPSDQTG)”, the “DMS PSSM value, S (position 14)” value was 0.
For RNAPRITFGGPSDSTG T7V (RNAPRIVFGGPSDSTG), the “DMS PSSM value, T (position 7)” value was 0.
With RNAPRITFGGPSDSTG I6H (RNAPRHTFGGPSDSTG) the “DMS PSSM value, I (position 6)” value was 0.
For RNAPRITFGGPSDSTG T7H (RNAPRIHFGGPSDSTG), the “DMS PSSM value, T (position 7)” value was 0.
With RNAPRITFGGPSDSTG P4S (RNASRITFGGPSDSTG) the “DMS PSSM value, P (position 4)” value was 0.
For “RNAPRITFGGPSDSTG S14D (RNAPRITFGGPSDDTG)”, the “DMS PSSM value, S (position 14)” value was 0.
RNAPRITFGGPSDSTG P4W (RNAWRITFGGPSDSTG) was tested, and the “DMS PSSM value, P (position 4)” value was 0.
“RNAPRITFGGPSDSTG T15F (RNAPRITFGGPSDSFG)” was tested, and the “DMS PSSM value, T (position 15)” value was 0.
RNAPRITFGGPSDSTG R5Q (RNAPQITFGGPSDSTG) was tested, and the “DMS PSSM value, R (position 5)” value was 0.0005824.
For “RNAPRITFGGPSDSTG T15P (RNAPRITFGGPSDSPG)”, the “DMS PSSM value, T (position 15)” value was 0.
In the case of “RNAPRITFGGPSDSTG S12R (RNAPRITFGGPRDSTG)”, the “DMS PSSM value, S (position 12)” value is reported as 0.
“RNAPRITFGGPSDSTG P11L (RNAPRITFGGLSDSTG)” was tested, and the “DMS PSSM value, P (position 11)” value was 0.
With “RNAPRITFGGPSDSTG G10H (RNAPRITFGHPSDSTG)” the “DMS PSSM value, G (position 10)” value was 0.
For “RNAPRITFGGPSDSTG P11A (RNAPRITFGGASDSTG)”, the “DMS PSSM value, P (position 11)” value was 0.
RNAPRITFGGPSDSTG F8N (RNAPRITNGGPSDSTG) was tested, and the “DMS PSSM value, F (position 8)” value was 0.
In the case of RNAPRITFGGPSDSTG F8V (RNAPRITVGGPSDSTG), the “DMS PSSM value, F (position 8)” value is reported as 0.
In the case of RNAPRITFGGPSDSTG R5N (RNAPNITFGGPSDSTG), the “DMS PSSM value, R (position 5)” value is reported as 0.
